PubChem BioAssay AID1919007 (Molecular Pharmacology Branch, DTP, NCI, 2023)

System: A498 complex spheroids with HUVEC/MSC, growth
Assay: Anticancer human tumor A498 cell line growth inhibition [AhR];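 also: seven day exposure starting three days after spheroid seeding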;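 as to viability, T/C: luminescence signal used as a surrogate for viable cells; luminescence viability scaled so 100% equals DMSO vehicle wells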
Conditions: for viability, T/C: stronger effect = lower value
Outline: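 Spheroids combined tumor cells with HUVEC endothelial cells and human MSCs as stroma. AhR antagonists were paired with standard or investigational drugs, each dosed in half-log steps down from near clinical Cmax, or from 10 microM where Cmax was unknown.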

[1] = curve of first compound, second compound 0.1 µM
[2] = curve of first compound, second compound 0.316 µM
[3] = curve of first compound, second compound 1 µM
[4] = curve of first compound, second compound 3.16 µM
[5] = curve of first compound, second compound 10 µM
[6] = second compound 0.1 µM, first compound 0.0316 µM
[7] = second compound 0.1 µM, first compound 0.1 µM
[8] = second compound 0.316 µM, first compound 0.0316 µM
[9] = second compound 0.316 µM, first compound 0.1 µM
[10] = second compound 1 µM, first compound 0.0316 µM
[11] = second compound 1 µM, first compound 0.1 µM
[12] = second compound 3.16 µM, first compound 0.0316 µM
[13] = second compound 3.16 µM, first compound 0.1 µM
[14] = second compound 10 µM, first compound 0.0316 µM
[15] = second compound 10 µM, first compound 0.1 µM
[16] = second compound 0.1 µM, first compound 0.00949 µM
[17] = second compound 0.1 µM, first compound 0.03 µM
[18] = second compound 0.1 µM, first compound 0.0949 µM
[19] = second compound 0.1 µM, first compound 0.3 µM
[20] = second compound 0.316 µM, first compound 0.00949 µM
[21] = second compound 0.316 µM, first compound 0.03 µM
[22] = second compound 0.316 µM, first compound 0.0949 µM
[23] = second compound 0.316 µM, first compound 0.3 µM
[24] = second compound 1 µM, first compound 0.00949 µM
[25] = second compound 1 µM, first compound 0.03 µM
[26] = second compound 1 µM, first compound 0.0949 µM
[27] = second compound 1 µM, first compound 0.3 µM
[28] = second compound 3.16 µM, first compound 0.00949 µM
[29] = second compound 3.16 µM, first compound 0.03 µM
[30] = second compound 3.16 µM, first compound 0.0949 µM
[31] = second compound 3.16 µM, first compound 0.3 µM
[32] = second compound 10 µM, first compound 0.00949 µM
[33] = second compound 10 µM, first compound 0.03 µM
[34] = second compound 10 µM, first compound 0.0949 µM
[35] = second compound 10 µM, first compound 0.3 µM

SMILES: NS(=O)(=O)OCC1CC(n2ccc3c(NC4CCc5ccccc54)ncnc32)CC1O (stereo unspecified) + Cc1cncc(-c2nc(NCCc3c[nH]c4ccccc34)c3ncn(C(C)C)c3n2)c1
- IC50 [1]: 448 nM
- IC50 [2]: 412 nM
- IC50 [3]: 244 nM
- IC50 [4]: < 31.6 nM
- IC50 [5]: < 31.6 nM
- viability, T/C [6]: 87.5%
- viability, T/C [7]: 86.2%
- viability, T/C (second compound 0.1 µM, first compound 0.316 µM): 55.5%
- viability, T/C (second compound 0.1 µM, first compound 1 µM): 33.3%
- viability, T/C (second compound 0.1 µM, first compound 3.16 µM): 23.7%
- viability, T/C (second compound 0.1 µM, first compound 10 µM): 18.3%
- viability, T/C [8]: 89.2%
- viability, T/C [9]: 81.6%
- viability, T/C (second compound 0.316 µM, first compound 0.316 µM): 52.1%
- viability, T/C (second compound 0.316 µM, first compound 1 µM): 35.4%
- viability, T/C (second compound 0.316 µM, first compound 3.16 µM): 22.4%
- viability, T/C (second compound 0.316 µM, first compound 10 µM): 19.2%
- viability, T/C [10]: 78.3%
- viability, T/C [11]: 71.3%
- viability, T/C (second compound 1 µM, first compound 0.316 µM): 41.6%
- viability, T/C (second compound 1 µM, first compound 1 µM): 29.7%
- viability, T/C (second compound 1 µM, first compound 3.16 µM): 20.3%
- viability, T/C (second compound 1 µM, first compound 10 µM): 17.9%
- viability, T/C [12]: 19.1%
- viability, T/C [13]: 18.4%
- viability, T/C (second compound 3.16 µM, first compound 0.316 µM): 18.8%
- viability, T/C (second compound 3.16 µM, first compound 1 µM): 18.3%
- viability, T/C (second compound 3.16 µM, first compound 3.16 µM): 15.5%
- viability, T/C (second compound 3.16 µM, first compound 10 µM): 13.8%
- viability, T/C [14]: 1.63%
- viability, T/C [15]: 1.35%
- viability, T/C (second compound 10 µM, first compound 0.316 µM): 0.89%
- viability, T/C (second compound 10 µM, first compound 1 µM): 0.94%
- viability, T/C (second compound 10 µM, first compound 3.16 µM): 0.76%
- viability, T/C (second compound 10 µM, first compound 10 µM): 0.77%

SMILES: O=C(C=Cn1cnc(-c2cc(C(F)(F)F)cc(C(F)(F)F)c2)n1)NNc1cnccn1 + Cc1cncc(-c2nc(NCCc3c[nH]c4ccccc34)c3ncn(C(C)C)c3n2)c1
- IC50 [1]: 81.5 nM
- IC50 [2]: 105 nM
- IC50 [3]: 78.2 nM
- IC50 [4]: 72.4 nM
- IC50 [5]: < 9.49 nM
- viability, T/C [16]: 86.3%
- viability, T/C [17]: 73.7%
- viability, T/C [18]: 46.5%
- viability, T/C [19]: 30.3%
- viability, T/C (second compound 0.1 µM, first compound 0.949 µM): 25.3%
- viability, T/C (second compound 0.1 µM, first compound 3 µM): 26.6%
- viability, T/C [20]: 87.2%
- viability, T/C [21]: 81.1%
- viability, T/C [22]: 51.5%
- viability, T/C [23]: 30.9%
- viability, T/C (second compound 0.316 µM, first compound 0.949 µM): 30.8%
- viability, T/C (second compound 0.316 µM, first compound 3 µM): 22.2%
- viability, T/C [24]: 84.8%
- viability, T/C [25]: 73.2%
- viability, T/C [26]: 45.6%
- viability, T/C [27]: 27.9%
- viability, T/C (second compound 1 µM, first compound 0.949 µM): 25%
- viability, T/C (second compound 1 µM, first compound 3 µM): 24.6%
- viability, T/C [28]: 69.3%
- viability, T/C [29]: 67.6%
- viability, T/C [30]: 43.9%
- viability, T/C [31]: 30.1%
- viability, T/C (second compound 3.16 µM, first compound 0.949 µM): 24.2%
- viability, T/C (second compound 3.16 µM, first compound 3 µM): 23.2%
- viability, T/C [32]: 3.95%
- viability, T/C [33]: 5.26%
- viability, T/C [34]: 7.65%
- viability, T/C [35]: 6.47%
- viability, T/C (second compound 10 µM, first compound 0.949 µM): 8.27%
- viability, T/C (second compound 10 µM, first compound 3 µM): 11.1%

SMILES: CC[C@@]1(O)C(=O)OCc2c1cc1n(c2=O)Cc2cc3c(CN(C)C)c(O)ccc3nc2-1 + CC(CO)NC(=O)c1cc(-c2ccc(Cl)cc2)nn(-c2cnn(C)c2)c1=O
- IC50 [1]: > 100 nM
- IC50 [2]: > 100 nM
- IC50 [3]: > 100 nM
- IC50 [4]: > 100 nM
- IC50 [5]: 75.7 nM
- viability, T/C (second compound 0.1 µM, first compound 0.000316 µM): 105%
- viability, T/C (second compound 0.1 µM, first compound 0.001 µM): 98.4%
- viability, T/C (second compound 0.1 µM, first compound 0.00316 µM): 103%
- viability, T/C (second compound 0.1 µM, first compound 0.01 µM): 94.6%
- viability, T/C [6]: 86.7%
- viability, T/C [7]: 68.2%
- viability, T/C (second compound 0.316 µM, first compound 0.000316 µM): 93.2%
- viability, T/C (second compound 0.316 µM, first compound 0.001 µM): 102%
- viability, T/C (second compound 0.316 µM, first compound 0.00316 µM): 96.4%
- viability, T/C (second compound 0.316 µM, first compound 0.01 µM): 82.4%
- viability, T/C [8]: 81.3%
- viability, T/C [9]: 64.8%
- viability, T/C (second compound 1 µM, first compound 0.000316 µM): 95.8%
- viability, T/C (second compound 1 µM, first compound 0.001 µM): 106%
- viability, T/C (second compound 1 µM, first compound 0.00316 µM): 100%
- viability, T/C (second compound 1 µM, first compound 0.01 µM): 92.2%
- viability, T/C [10]: 76.9%
- viability, T/C [11]: 65.3%
- viability, T/C (second compound 3.16 µM, first compound 0.000316 µM): 92%
- viability, T/C (second compound 3.16 µM, first compound 0.001 µM): 87%
- viability, T/C (second compound 3.16 µM, first compound 0.00316 µM): 88.6%
- viability, T/C (second compound 3.16 µM, first compound 0.01 µM): 71.1%
- viability, T/C [12]: 71.2%
- viability, T/C [13]: 60.1%
- viability, T/C (second compound 10 µM, first compound 0.000316 µM): 77%
- viability, T/C (second compound 10 µM, first compound 0.001 µM): 74.2%
- viability, T/C (second compound 10 µM, first compound 0.00316 µM): 76.6%
- viability, T/C (second compound 10 µM, first compound 0.01 µM): 63.1%
- viability, T/C [14]: 57.1%
- viability, T/C [15]: 47.7%

SMILES: Nc1ncn(C2CC(O)C(CO)S2)c(=O)n1 (stereo unspecified) + Cc1cncc(-c2nc(NCCc3c[nH]c4ccccc34)c3ncn(C(C)C)c3n2)c1
- IC50 [1]: > 300 nM
- IC50 [2]: > 300 nM
- IC50 [3]: > 300 nM
- IC50 [4]: < 0.949 nM
- IC50 [5]: < 0.949 nM
- viability, T/C (second compound 0.1 µM, first compound 0.000949 µM): 90.1%
- viability, T/C (second compound 0.1 µM, first compound 0.003 µM): 89.7%
- viability, T/C [16]: 92.5%
- viability, T/C [17]: 77.8%
- viability, T/C [18]: 73.7%
- viability, T/C [19]: 63.3%
- viability, T/C (second compound 0.316 µM, first compound 0.000949 µM): 94.1%
- viability, T/C (second compound 0.316 µM, first compound 0.003 µM): 104%
- viability, T/C [20]: 95%
- viability, T/C [21]: 86.9%
- viability, T/C [22]: 80.6%
- viability, T/C [23]: 68.3%
- viability, T/C (second compound 1 µM, first compound 0.000949 µM): 83.6%
- viability, T/C (second compound 1 µM, first compound 0.003 µM): 86%
- viability, T/C [24]: 80.4%
- viability, T/C [25]: 73.4%
- viability, T/C [26]: 75.2%
- viability, T/C [27]: 68.2%
- viability, T/C (second compound 3.16 µM, first compound 0.000949 µM): 32.3%
- viability, T/C (second compound 3.16 µM, first compound 0.003 µM): 33.6%
- viability, T/C [28]: 36.5%
- viability, T/C [29]: 27.1%
- viability, T/C [30]: 29.6%
- viability, T/C [31]: 28.2%
- viability, T/C (second compound 10 µM, first compound 0.000949 µM): 5.79%
- viability, T/C (second compound 10 µM, first compound 0.003 µM): 5.22%
- viability, T/C [32]: 5.53%
- viability, T/C [33]: 6.62%
- viability, T/C [34]: 4.93%
- viability, T/C [35]: 5.47%

SMILES: Cc1ccccc1N=Nc1ccc(NC(=O)c2ccnn2C)c(C)c1
- viability, T/C (compound 0.1 µM): 88.8% [middle of 20 runs]
- viability, T/C (compound 0.316 µM): 96.8% [middle of 20 runs]
- viability, T/C (compound 1 µM): 89.2% [middle of 20 runs]
- viability, T/C (compound 3.16 µM): 84.9% [middle of 20 runs]
- viability, T/C (compound 10 µM): 86.3% [middle of 20 runs]
- IC50 (compound alone, run of 08/22/2022): > 10000 nM
